These results are taken from patent US8642643B2, “CXCR2 antagonists” (Sanofi, priority 2006, dated 2014).

pIC50: −log10 of the molar value.

The target in this experiment is T1, human CXCR2 (Homo sapiens, UniProt P25025).
T1 construct: expressed in transfected cells; host or cells: CHO-K1
T1 sequence (P25025 1-360): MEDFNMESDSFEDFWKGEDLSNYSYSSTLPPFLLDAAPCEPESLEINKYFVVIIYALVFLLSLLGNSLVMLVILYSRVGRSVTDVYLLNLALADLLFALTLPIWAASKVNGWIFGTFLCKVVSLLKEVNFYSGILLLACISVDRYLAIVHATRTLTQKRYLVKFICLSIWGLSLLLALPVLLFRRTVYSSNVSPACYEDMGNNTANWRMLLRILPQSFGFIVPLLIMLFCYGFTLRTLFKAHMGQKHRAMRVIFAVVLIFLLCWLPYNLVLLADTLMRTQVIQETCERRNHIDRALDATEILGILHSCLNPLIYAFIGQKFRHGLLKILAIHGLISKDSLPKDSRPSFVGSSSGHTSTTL
The experiment can be described thus: CXCR2 inhibition: calcium fluorescence assay (FLIPR). The class given is cell-based. To be noted: chemokine IL-8; CHO-K1 cells stably transfected with human CXCR2 and Gα16; calcium response (Fluo-4). The text has this:
Determination of CXCR2 Inhibition: Calcium Fluorescence Assay (FLIPR)
The assay is based on the detection of intracellular calcium changes detected by the selective, calcium-chelating dye, Fluo-4 (Molecular Probes). A large fluorescence intensity increase is observed upon calcium association with Fluo-4. The dye is delivered to the cell interior using an acetoxymethylester form of Fluo-4, where the intracellular esterase activity results in the charged species being released and trapped within the cytoplasm of the cell. […] By co-expressing the CXCR2 receptor and the promiscuous Gα16 protein, activation of this chemokine receptor is directed into this phospholipase C cascade resulting in intracellular calcium mobilization.
The CHO-K1 cells stably transfected with human CXCR2 and the promiscuous Gα16 protein were maintained in a log phase of growth at 37° C. and 5% CO2 in the following media: Iscove's, 10% FBS, 1× Penicillin-Streptomycin, 400 μg/ml G418 and 350 μg/ml Zeocin. Approximately 24-48 hours prior to the assay, 20,000-30,000 cells/well were plated onto a 96-well black/clear bottomed assay plate (Becton Dickinson) with a well volume of 180 μl. For dye loading the culture medium was carefully removed and replaced by 100 μl/well dye solution (4 μM Fluo-4 in 135 mM NaCl, 5 mM KCl, 1 mM magnesium sulphate, 5 mM glucose, 20 mM hepes, 2.5 mM probenecid; pH 7.4). Cells were incubated for 1 h at 37° C., and then washed 3× with buffer. After washing 90 μl buffer/well were left. Increasing concentrations of compound was added in 45 μl buffer (4× concentrated) followed by 10 min incubation at 37° C. Then the chemokine (10-100 nM) was applied in 45 μl buffer (4× concentrated) and the measurement performed for 2 min. The IC50 value of a compound was determined by calculation of % inhibition of total calcium response to the chemokine.
Usually pIC50 stands for the IC50 on a negative log10 scale, so that one unit is a factor of ten. In the case of `CC(C)(NC(=O)c1ccc2sccc2c1OCc1ccc(C(F)(F)F)cc1)C(=O)O` [Example 13, 2-Methyl-2-{[4-(4-trifluoromethyl-benzyloxy)-benzo[b]thiophene-5-carbonyl]-amino}-propionic acid], the negative logarithm of the IC50 (pIC50) is 5.96.
Take `CCC(C)(NC(=O)c1ccc2c(c1OCc1nc3ccccc3s1)CCCC2)C(=O)O` (stereo not shown) [Example 5, 2-{[1-(Benzothiazol-2-ylmethoxy)-5,6,7,8-tetrahydro-naphthalene-2-carbonyl]-amino}-2-methyl-butyric acid]: the pIC50 is 6.40.
Turning to `CC(C)(NC(=O)c1ccc2ccsc2c1OCc1ccc(C(F)(F)F)cc1)C(=O)O` [Example 12, 2-Methyl-2-{[7-(4-trifluoromethyl-benzyloxy)-benzo[b]thiophene-6-carbonyl]-amino}-propionic acid], the pIC50 is 6.15.
Regarding `Cc1cc(C(=O)NC(C)(C)C(=O)O)c(OCc2ccc(C(F)(F)F)cc2)c2c1CCC2` [Example 11, 2-Methyl-2-{[7-methyl-4-(4-trifluoromethyl-benzyloxy)-indane-5-carbonyl]-amino}-propionic acid], the pIC50 was 5.80.
Then `CC(C)(NC(=O)c1ccc2c(c1OCc1ccc(C(F)(F)F)cc1F)CCCC2)C(=O)O` [Example 8, 2-{[1-(2-Fluoro-4-trifluoromethyl-benzyloxy)-5,6,7,8-tetrahydro-naphthalene-2-carbonyl]-amino}-2-methyl-propionic acid], with 5.74.
To `CC(C)(NC(=O)c1ccc2c(c1OCc1nc3ccccc3s1)CCCC2)C(=O)O` [Example 2, 2-{[1-(Benzothiazol-2-ylmethoxy)-5,6,7,8-tetrahydro-naphthalene-2-carbonyl]-amino}-2-methyl-propionic acid] belongs 6.22; to `CCC(C)(NC(=O)c1ccc2c(c1OCc1ccc(OC(F)(F)F)cc1)CCCC2)C(=O)O` (stereo not shown) [Example 9, 2-Methyl-2-{[1-(4-trifluoromethoxy-benzyloxy)-5,6,7,8-tetrahydro-naphthalene-2-carbonyl]-amino}-butyric acid], 5.82.
